Experimental data: US8466145B2, “Dipeptidyl peptidase IV inhibitors” (Orchid Chemicals & Pharmaceuticals Limited, priority 2009, dated 2013)
Where a name gives a salt, the structure may show the parent alone.

How the values were obtained:
[1] = biological target: T1, human recombinant Dipeptidyl peptidase IV enzyme (hrDPP IV) (Homo sapiens, UniProt P27487); assay: DPP IV assay, cleavage of H-Gly-Pro-AMC by human recombinant DPP-IV enzyme; assay type: biochemical; conditions: for inhibition at 0.3 µM: 300 nM compound concentration
T1 construct: purchased R&D systems
Method: DPP IV activity was determined by the cleavage rate of 7-amino 4-methylcoumarin (AMC) from the substrate H-Gly-Pro-AMC. In brief, the assay was conducted by adding 3 ng of human recombinant Dipeptidyl peptidase IV enzyme (hrDPP IV, available commercially from R&D systems) in 70 μL of the assay buffer (25 mM HEPES, 140 mM NaCl and 1% BSA, pH 7.8) to a 96 well black flat bottom microtitre plate. Test compounds were added as 10 μL additions to all wells except blank and total activity wells. After incubation of test substance with enzyme for 60 minutes at room temperature, 10 μL of 100 μM substrate H-Gly-Pro-AMC was added. After mixing, the plate was left for 20 minutes at room temperature. Then the reaction was terminated by addition of 10 μL of 25% glacial acetic acid. Fluorescence was measured using Spectra Max Gemini XS (Molecular Devices, USA) at an excitation filter of 360 nm and emission filter of 460 nm.
Test compounds dissolved in DMSO were diluted with assay buffer at different concentrations and tested in duplicates. Percentage inhibition was calculated with respect to total activity. IC50 value was calculated using Prism Software.

T1 sequence (P27487 whole entry): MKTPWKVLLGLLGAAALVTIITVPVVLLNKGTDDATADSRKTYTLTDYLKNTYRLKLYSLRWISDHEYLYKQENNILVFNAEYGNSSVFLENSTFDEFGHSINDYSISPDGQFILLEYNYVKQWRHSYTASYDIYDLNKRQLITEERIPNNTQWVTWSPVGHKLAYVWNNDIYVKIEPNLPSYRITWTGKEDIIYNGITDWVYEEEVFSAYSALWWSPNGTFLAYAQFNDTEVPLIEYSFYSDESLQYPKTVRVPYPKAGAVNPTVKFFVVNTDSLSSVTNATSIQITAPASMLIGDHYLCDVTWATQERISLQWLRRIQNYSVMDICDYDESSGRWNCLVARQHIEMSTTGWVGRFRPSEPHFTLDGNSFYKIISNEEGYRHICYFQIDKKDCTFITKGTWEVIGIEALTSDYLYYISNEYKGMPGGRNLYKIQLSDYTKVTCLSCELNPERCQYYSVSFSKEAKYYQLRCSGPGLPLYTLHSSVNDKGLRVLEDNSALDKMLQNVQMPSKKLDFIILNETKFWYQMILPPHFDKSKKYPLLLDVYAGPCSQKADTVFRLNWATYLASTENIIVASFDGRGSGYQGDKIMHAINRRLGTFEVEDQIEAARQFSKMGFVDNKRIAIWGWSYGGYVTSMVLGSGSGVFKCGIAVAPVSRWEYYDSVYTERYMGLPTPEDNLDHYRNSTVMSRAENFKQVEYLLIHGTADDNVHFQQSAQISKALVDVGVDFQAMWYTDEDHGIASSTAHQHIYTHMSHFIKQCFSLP

| Compound | IC50 [1] [nM] | inhibition at 0.3 µM [1] [%] | also measured |
| --- | --- | --- | --- |
| CC1(C)[C@@H](Cn2cncn2)CC[C@@]1(C)NCC(=O)N1CCC[C@H]1C#N (as salt: methanesulfonate) [Example 9, (S)-1-(2-((1R,3S)-3-((1H-1,2,4-Triazol-1-yl)methyl)-1,2,2-trimethylcyclopentylamino)acetyl)pyrrolidine-2-carbonitrilemethanesulfonate] |  |  | melting point: 150 to 155 °C |
| CC1(C)[C@@H](Cn2cnnn2)CC[C@@]1(C)NCC(=O)N1C[C@@H](F)C[C@H]1C#N (as salt: methanesulfonate) [Example 31, (2S,4S)-1-(2-((1R,3S)-3-((1H-Tetrazol-1-yl)methyl)-1,2,2-trimethylcyclopentylamino)acetyl)-4-fluoropyrrolidine-2-carbonitrile methanesulfonate] |  |  | melting point: 210 to 214 °C |
| CC1(C)[C@@H](NCC(=O)N2CCC[C@H]2C#N)CC[C@@]1(C)c1nc(-c2ccc(F)cc2)no1 (as salt: methanesulfonate) [Example 66, (S)-1-(2-((1S,3R)-3-(3-(4-Fluorophenyl)-1,2,4-oxadiazol-5-yl)-2,2,3-trimethylcyclopentylamino)acetyl)pyrrolidine-2-carbonitrile methanesulfonate] |  |  | melting point: 206 to 211 °C |
| CC1(C)[C@@H](Cn2cncn2)CC[C@@]1(C)NCC(=O)N1C[C@@H](F)C[C@H]1C#N [Example 1, (2S,4S)-1-(2-((1R,3S)-3-((1H-1,2,4-Triazol-1-yl)methyl)-1,2,2-trimethylcyclopentylamino)acetyl)-4-fluoropyrrolidine-2-carbonitrile] | 222 ± 56.8 |  | melting point: 186 to 188 °C |
| CC1(C)[C@H](Cn2cncn2)CC[C@]1(C)NCC(=O)N1CCC[C@H]1C#N [Example 6, (S)-1-(2-((1S,3R)-3-((1H-1,2,4-Triazol-1-yl)methyl)-1,2,2-trimethylcyclopentylamino)acetyl)pyrrolidine-2-carbonitrile] | 123 |  |  |
| CC1(C)[C@H](Cn2cncn2)CC[C@]1(C)NCC(=O)N1CCC[C@H]1C#N [Example 7, (S)-1-(2-((1S,3R)-3-((1H-1,2,4-Triazol-1-yl)methyl)-1,2,2-trimethylcyclopentylamino)acetyl)pyrrolidine-2-carbonitrile methanesulfonate] | 99.8 |  |  |
| CC1(C)[C@@H](Cn2cncn2)CC[C@@]1(C)NCC(=O)N1CCC[C@H]1C#N [Example 8, (S)-1-(2-((1R,3S)-3-((1H-1,2,4-Triazol-1-yl)methyl)-1,2,2-trimethyleyclopentylamino)acetyl)pyrrolidine-2-carbonitrile] | 1170 ± 0.14 |  |  |
| CC1(C)[C@@H](Cn2cncn2)CC[C@@]1(C)NCC(=O)N1CCC[C@H]1C#N [Example 9, (S)-1-(2-((1R,3S)-3-((1H-1,2,4-Triazol-1-yl)methyl)-1,2,2-trimethylcyclopentylamino)acetyl)pyrrolidine-2-carbonitrilemethanesulfonate] | 781 ± 91.6 |  |  |
| CC1(C)[C@@H](Cn2ccnn2)CC[C@@]1(C)NCC(=O)N1C[C@@H](F)C[C@H]1C#N [Example 11, (2S,4S)-1-(2-((1R,3S)-3-((1H-1,2,3-Triazol-1-yl)methyl)-1,2,2-trimethylcyclopentylamino)acetyl)-4-fluoropyrrolidine-2-carbonitrile] | 232 |  |  |
| CC1(C)[C@H](Cn2ccnn2)CC[C@]1(C)NCC(=O)N1C[C@@H](F)C[C@H]1C#N [Example 13, (2S,4S)-1-(2-((1S,3R)-3-((1H-1,2,3-Triazol-1-yl)methyl)-1,2,2-trimethylcyclopentylamino)acetyl)-4-fluoropyrrolidine-2-carbonitrilemethane sulfonate] | 27.8 |  |  |
| CC1(C)[C@@H](C(=O)N2CCCCC2)CC[C@@]1(C)NCC(=O)N1C[C@@H](F)C[C@H]1C#N [Example 14, (2S,4S)-4-Fluoro-1-(2-((1R,3S)-1,2,2-trimethyl-3-(piperidine-1-carbonyl)cyclopentylamino)acetyl)pyrrolidine-2-carbonitrile] |  | 73.2 |  |
| CC1(C)[C@@H](CNS(C)(=O)=O)CC[C@@]1(C)NCC(=O)N1C[C@@H](F)C[C@H]1C#N [Example 17, N-(((1S,3R)-3-(2-((2S,4S)-2-Cyano-4-fluoropyrrolidin-1-yl)-2-oxoethylamino)-2,2,3-trimethylcyclopentyl)methyl)methanesulfonamide] |  | 46.6 |  |
| CC1(C)[C@@H](CNS(=O)(=O)c2ccc(F)cc2)CC[C@@]1(C)NCC(=O)N1C[C@@H](F)C[C@H]1C#N [Example 19, N-(((1S,3R)-3-(2-((2S,4S)-2-Cyano-4-fluoropyrrolidin-1-yl)-2-oxoethylamino)-2,2,3-trimethylcyclopentyl)methyl)-4-fluorobenzenesulfonamide] | 304.8 ± 2.1 |  |  |
| CC1(C)[C@@H](CNc2ccc(C#N)cn2)CC[C@@]1(C)NCC(=O)N1C[C@@H](F)C[C@H]1C#N [Example 24, 6-(((1S,3R)-3-(2-((2S,4S)-2-Cyano-4-fluoropyrrolidin-1-yl)-2-oxoethylamino)-2,2,3-trimethylcyclopentyl)methylamino)nicotinonitrile] | 134 |  |  |
| CC1(C)[C@H](CNc2ccc(C#N)cn2)CC[C@]1(C)NCC(=O)N1C[C@@H](F)C[C@H]1C#N [Example 25, 6-(((1R,3S)-3-(2-((2S,4S)-2-Cyano-4-fluoropyrrolidin-1-yl)-2-oxoethylamino)-2,2,3-trimethylcyclopentyl)methylamino)nicotinonitrile] | 29.4 |  |  |
| CC1(C)[C@@H](Cn2cnnn2)CC[C@@]1(C)NCC(=O)N1C[C@@H](F)C[C@H]1C#N [Example 31, (2S,4S)-1-(2-((1R,3S)-3-((1H-Tetrazol-1-yl)methyl)-1,2,2-trimethylcyclopentylamino)acetyl)-4-fluoropyrrolidine-2-carbonitrile methanesulfonate] | 264 |  |  |
| CC1(C)[C@@H](CN2CCOCC2)CC[C@@]1(C)NCC(=O)N1C[C@@H](F)C[C@H]1C#N [Example 33, (2S,4S)-4-Fluoro-1-(2-((1R,3S)-1,2,2-trimethyl-3-(morpholinomethyl)cyclopentylamino)acetyl)pyrrolidine-2-carbonitrile] | 250 |  |  |
| CC1(C)[C@H](CN2CCCCC2)CC[C@]1(C)NCC(=O)N1C[C@@H](F)C[C@H]1C#N [Example 40, (2S,4S)-4-Fluoro-1-(2-((1S,3R)-1,2,2-trimethyl-3-(piperidin-1-ylmethyl)cyclopentylamino)acetyl)pyrrolidine-2-carbonitrile] |  | 84.7 |  |
| CC1(C)[C@@H](CN2CCC(O)CC2)CC[C@@]1(C)NCC(=O)N1C[C@@H](F)C[C@H]1C#N [Example 41, (2S,4S)-4-Fluoro-1-(2-((1R,3S)-3-((4-hydroxypiperidin-1-yl)methyl)1,2,2-trimethylcyclopentylamino)acetyl)pyrrolidine-2-carbonitrile] |  | 26.1 |  |
| CC1(C)[C@@H](CS(=O)(=O)c2ccc(S(C)(=O)=O)cc2)CC[C@@]1(C)NCC(=O)N1C[C@H](F)C[C@H]1C#N [Example 43, (2S,4R)-4-Fluoro-1-(2-((1R,3S)-1,2,2-trimethyl-3-((4-(methylsulfonyl)phenylsulfonyl)methyl)cyclopentylamino)acetyl)pyrrolidine-2-carbonitrile] |  |  | melting point: 163 to 166 °C |
| CC1(C)[C@@H](CC#N)CC[C@@]1(C)NCC(=O)N1C[C@@H](F)C[C@H]1C#N [Example 53, (2S,4S)-1-(2-((1R,3R)-3-(Cyanomethyl)-1,2,2-trimethylcyclopentylamino)acetyl)-4-fluoropyrrolidine-2-carbonitrile] |  | 56.5 |  |
| CN1C(=O)[C@]2(C)CC[C@](NCC(=O)N3CCC[C@H]3C#N)(C1=O)C2(C)C [Example 75, (S)-1-(2-((1R,5R)-3,5,8,8-Tetramethyl-2,4-dioxo-3-azabicyclo[3.2.1]octan-1-ylamino)acetyl)pyrrolidine-2-carbonitrile] |  |  | melting point: 141 to 144 °C |
| CN1C[C@]2(C)CC[C@](NCC(=O)N3CCC[C@H]3C#N)(C1)C2(C)C [Example 78, (S)-1-(2-((1R,5R)-3,5,8,8-Tetramethyl-3-azabicyclo[3.2.1]octan-1-ylamino)acetyl)pyrrolidine-2-carbonitrile] |  | 23.3 |  |
| CC1(C)[C@@]2(C)CC[C@]1(NCC(=O)N1CCC[C@H]1C#N)C(=O)OC2 [Example 79, (S)-1-(2-((1R,5R)-5,8,8-Trimethyl-2-oxo-3-oxabicyclo[3.2.1]octan-1-ylamino)acetyl)pyrrolidine-2-carbonitrile] |  |  | melting point: 174 to 177 °C |
| CC1(C)[C@@]2(C)CC[C@]1(NCC(=O)N1CCC[C@H]1C#N)COC2 [Example 80, (S)-1-(2-((1R,5R)-5,8,8-Trimethyl-3-oxabicyclo[3.2.1]octan-1-ylamino)acetyl)pyrrolidine-2-carbonitrile] |  | 2.28 |  |
| CC1(C)[C@@]2(C)CC[C@]1(NCC(=O)N1C[C@@H](F)C[C@H]1C#N)COC2 [Example 81, (2S,4S)-4-Fluoro-1-(2-((1R,5R)-5,8,8-trimethyl-3-oxabicyclo[3.2.1]octan-1-ylamino)acetyl)pyrrolidine-2-carbonitrile] |  | 21.3 |  |
| CC1(C)[C@]2(C)CC[C@@]1(NCC(=O)N1C[C@@H](F)C[C@H]1C#N)COC2 [Example 82, (2S,4S)-4-Fluoro-1-(2-((1S,5S)-5,8,8-trimethyl-3-oxabicyclo[3.2.1]octan-1-ylamino)acetyl)pyrrolidine-2-carbonitrile] |  | 22.4 |  |
